The values below are quoted from earlier work in EP3045477B1, “Method for reducing the migration of photoinitiators and their degradation products in UV curable coatings” (IOT - Innovative Oberflächentechnologien GmbH, priority 2015, dated 2016).

The conditions of the series: listed limit, Verordnung (EU) 10/2011.

Take `Cc1cc(C(C)(C)C)c(O)c(C(C)(C)C)c1` [Butylhydroxy toluol, Butylhydroxytoluol]: the “spezifische Migrationslimit” value is recorded as 3 mg/kg.
